Results from PubChem BioAssay AID256 (DTP/NCI, 2004).
Several values for one entry are separate records, joined by “and”; a condition that tells them apart may be missing. Equal entries are not always repeated. Toxic doses and inconclusive results are not listed. The calls were made as follows: active = survival T/C of 150% or more; inactive = T/C below 125% in these data.

System: CD2F1 mice, L1210 leukemia ip, survival T/C
Experiment: NCI In Vivo Anticancer Drug Screen. Data for tumor model L1210 Leukemia (intraperitoneal) in CD2F1 (CDF1) mice
Settings: endpoint: mean survival time, higher = longer survival
Procedure, shortened: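 Antitumor effect is scored in animals hosting a serially transplanted tumor. Values compare compound-dosed animals against vehicle-only controls as a simple quotient.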

[1] = dose: 25.0 mg/kg/injection, schedule: Q01DX009 (ip), vehicle: saline with Tween-80
[2] = dose: 50.0 mg/kg/injection, schedule: Q01DX009 (ip), vehicle: saline with Tween-80
[3] = dose: 100.0 mg/kg/injection, schedule: Q01DX009 (ip), vehicle: saline with Tween-80
[4] = dose: 100.0 mg/kg/injection, schedule: Q04DX003 (ip), vehicle: saline with Tween-80
[5] = dose: 200.0 mg/kg/injection, schedule: Q04DX003 (ip), vehicle: saline with Tween-80
[6] = dose: 400.0 mg/kg/injection, schedule: Q04DX003 (ip), vehicle: saline with Tween-80
[7] = dose: 200.0 mg/kg/injection, schedule: Q01DX009 (ip), vehicle: saline with Tween-80

Measured: T/C

CC(c1ccccc1)n1cncc1C(=O)N1CCN(C)CC1 (stereo not drawn)
inactive: [1] 105 % of control | [2] 96 % of control | [3] 94 % of control and 95 % of control | [4] 92 % of control | [5] 91 % of control | [6] 97 % of control

Cc1nc2ccc(Cl)cc2n1C
inactive: [2] 102 % of control | [3] 102 % of control | [7] 106 % of control

CCOC(=O)c1ccc(NCN2C(=O)CCC2=O)cc1
inactive: [3] 95 % of control | [7] 101 % of control | dose: 400.0 mg/kg/injection, schedule: Q01DX009 (ip), vehicle: saline with Tween-80 102 % of control

CN(C)CCCNC1CCC(NCCCN(C)C)CC1 (stereo not drawn)
inactive: dose: 25.0 mg/kg/injection, schedule: Q01DX009 (ip), vehicle: saline 96 % of control | dose: 100.0 mg/kg/injection, schedule: Q04DX003 (ip), vehicle: saline 98 % of control

OC1c2ccccc2-c2ccc(Cl)cc21 (stereo not drawn)
inactive: [4] 94 % of control | [5] 86 % of control | [6] 96 % of control

Cc1cc(N)c(C)c(C)c1O
inactive: [1] 90 % of control | [2] 98 % of control | [3] 88 % of control

COc1ccc(-n2c(=O)[nH]c3c(c2=O)C(c2ccc(Cl)cc2)C(C)(C)O3)cc1 (stereo not drawn)
inactive: dose: 100.0 mg/kg/injection, schedule: Q04DX002 (ip), vehicle: saline with Tween-80 100 % of control | dose: 200.0 mg/kg/injection, schedule: Q04DX002 (ip), vehicle: saline with Tween-80 95 % of control | dose: 400.0 mg/kg/injection, schedule: Q04DX002 (ip), vehicle: saline with Tween-80 103 % of control

COC(=O)NC(=O)c1cn[nH]n1
inactive: dose: 12.5 mg/kg/injection, schedule: Q01DX009 (ip), vehicle: other 98 % of control | dose: 25.0 mg/kg/injection, schedule: Q01DX009 (ip), vehicle: other 103 % of control | dose: 50.0 mg/kg/injection, schedule: Q01DX009 (ip), vehicle: other 97 % of control | dose: 100.0 mg/kg/injection, schedule: Q01DX009 (ip), vehicle: other 101 % of control | dose: 200.0 mg/kg/injection, schedule: Q01DX009 (ip), vehicle: other 95 % of control

COC1C(O)C(CO)OC1n1cc(F)c(=O)[nH]c1=O (stereo not drawn)
inactive: dose: 50.0 mg/kg/injection, schedule: Q01DX009 (ip), vehicle: saline 104 % of control | dose: 100.0 mg/kg/injection, schedule: Q01DX009 (ip), vehicle: saline 100 % of control | dose: 200.0 mg/kg/injection, schedule: Q01DX009 (ip), vehicle: saline 115 % of control

O=C(COc1ccc(Cl)c(Cl)c1)NCc1cccc([N+](=O)[O-])c1
inactive: dose: 75.0 mg/kg/injection, schedule: Q01DX001 (ip), vehicle: saline with Tween-80 93 % of control | dose: 150.0 mg/kg/injection, schedule: Q01DX001 (ip), vehicle: saline with Tween-80 88 % of control | dose: 300.0 mg/kg/injection, schedule: Q01DX001 (ip), vehicle: saline with Tween-80 86 % of control

Cc1ccc(N/N=C/C(=O)O)cc1
inactive: dose: 12.5 mg/kg/injection, schedule: Q04DX003 (ip), vehicle: other 101 % of control | dose: 25.0 mg/kg/injection, schedule: Q04DX003 (ip), vehicle: other 101 % of control | dose: 50.0 mg/kg/injection, schedule: Q04DX003 (ip), vehicle: other 97 % of control | dose: 100.0 mg/kg/injection, schedule: Q04DX003 (ip), vehicle: other 95 % of control | dose: 400.0 mg/kg/injection, schedule: Q04DX003 (ip), vehicle: other 94 % of control

CCOC(=O)c1cc(C(=O)OCC)c2ccc(Br)ccc1-2
inactive: dose: 100.0 mg/kg/injection, schedule: Q01DX001 (sc), vehicle: olive oil, sesame oil, peanut oil 105 % of control | dose: 200.0 mg/kg/injection, schedule: Q01DX001 (sc), vehicle: olive oil, sesame oil, peanut oil 96 % of control | dose: 400.0 mg/kg/injection, schedule: Q01DX001 (sc), vehicle: olive oil, sesame oil, peanut oil 93 % of control

CN(C)c1ccc(/C=N/NC(=O)c2ccccc2)cc1
inactive: dose: 3.12 mg/kg/injection, schedule: Q04DX003 (ip), vehicle: saline with Tween-80 90 % of control | dose: 6.25 mg/kg/injection, schedule: Q04DX003 (ip), vehicle: saline with Tween-80 96 % of control | dose: 12.5 mg/kg/injection, schedule: Q04DX003 (ip), vehicle: saline with Tween-80 94 % of control

Nc1nc(N)c(-c2ccc(Cl)cc2)c(/C=C/C=C/c2ccc([N+](=O)[O-])cc2)n1
inactive: dose: 50.0 mg/kg/injection, schedule: Q01DX001 (ip), vehicle: saline with Tween-80 97 % of control | dose: 100.0 mg/kg/injection, schedule: Q01DX001 (ip), vehicle: saline with Tween-80 92 % of control | dose: 200.0 mg/kg/injection, schedule: Q01DX001 (ip), vehicle: saline with Tween-80 101 % of control

CC(C)(COCc1ccccc1)COP(N)(=O)N(CCCl)CCCl (stereo not drawn)
inactive: dose: 25.0 mg/kg/injection, schedule: Q01DX001 (ip), vehicle: other 102 % of control | dose: 50.0 mg/kg/injection, schedule: Q01DX001 (ip), vehicle: other 93 % of control | dose: 100.0 mg/kg/injection, schedule: Q01DX001 (ip), vehicle: other 87 % of control | dose: 200.0 mg/kg/injection, schedule: Q01DX001 (ip), vehicle: other 96 % of control | dose: 400.0 mg/kg/injection, schedule: Q01DX001 (ip), vehicle: other 98 % of control
